According to patent publication US8664257B2, “Oxygen-substituted 3-heteroaroylamino-propionic acid derivatives and their use as pharmaceuticals” (Sanofi, priority 2010, dated 2014):

target: T1, Recombinant human cathepsin A (Homo sapiens, UniProt P10619); assay: Cathepsin A inhibitory activity; type: biochemical; details: read-out: Activity (2): Cathepsin A inhibitory activity (IC50 class)
T1 construct: Recombinant human cathepsin A (residues 29-480, with a C-terminal 10-His tag); 10-His (C); purchased R&D Systems 1049-SE
T1 sequence (P10619 29-312 limits assumed): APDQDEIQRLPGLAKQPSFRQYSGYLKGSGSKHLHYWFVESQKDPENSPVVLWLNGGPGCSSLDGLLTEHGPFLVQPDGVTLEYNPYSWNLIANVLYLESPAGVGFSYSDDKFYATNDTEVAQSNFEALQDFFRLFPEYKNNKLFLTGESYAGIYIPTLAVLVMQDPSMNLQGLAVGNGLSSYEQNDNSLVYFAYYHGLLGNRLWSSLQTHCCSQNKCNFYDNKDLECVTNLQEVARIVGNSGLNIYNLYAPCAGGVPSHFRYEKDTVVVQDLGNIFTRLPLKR
T1 sequence (P10619 327-480 limits assumed): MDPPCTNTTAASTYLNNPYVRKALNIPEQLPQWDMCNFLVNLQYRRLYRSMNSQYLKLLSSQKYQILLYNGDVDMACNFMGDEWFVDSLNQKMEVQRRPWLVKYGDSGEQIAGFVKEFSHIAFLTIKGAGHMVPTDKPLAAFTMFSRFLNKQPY
Outline: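 Human cathepsin A (res. 29-480, C-His10) pre-activated with cathepsin L (MES pH 6.0, DTT, 15 min, 37 °C; quenched with 10 μM E-64). Enzyme (833 ng/ml) preincubated 15 min RT with compound in MES pH 5.5/DTT, then 2 μM Bodipy FL-bradykinin for 15 min RT. Capillary electrophoresis product/substrate peak areas; IC50 from % inhibition.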

| SMILES | IC50 |
| --- | --- |
| Cc1ccccc1[C@H](CC(=O)O)NC(=O)c1cc(O)n(-c2ccccc2S(C)(=O)=O)n1 [Example 607] | 1000 to 30000 nM |
| COc1cc(C(=O)N[C@@H](CC(=O)O)c2ccccc2C)nn1-c1ccccc1Cl [Example 608] | 100 to 1000 nM |
| COc1cc(C(=O)N[C@@H](CC(=O)O)c2ccccc2C)nn1-c1cccc(F)c1 [Example 609] | < 100 nM |
| COc1cc(C(=O)N[C@@H](CC(=O)O)c2ccccc2C)nn1-c1cc(F)ccc1F [Example 610] | < 100 nM |
| COc1cc(C(=O)N[C@@H](CC(=O)O)c2ccccc2C)nn1C(C)(C)C [Example 611] | 100 to 1000 nM |
| Cc1ccccc1[C@H](CC(=O)O)NC(=O)c1cc(OCC2CC2)n(-c2ccccc2F)n1 [Example 612] | < 100 nM |
| Cc1ccccc1[C@H](CC(=O)O)NC(=O)c1cc(OC(=O)N2CCCC2)n(-c2ccccc2F)n1 [Example 613, Pyrrolidine-1-carboxylic acid 5-((S)-2-carboxy-1-o-tolyl-ethylcarbamoyl)-2-(2-fluoro-phenyl)-2H-pyrazol-3-yl ester] | < 100 nM |
| Cc1ccccc1[C@H](CC(=O)O)NC(=O)c1cc(OC(=O)N(C)C)n(-c2ccccc2F)n1 [Example 614] | < 100 nM |
| Cc1ccccc1[C@H](CC(=O)O)NC(=O)c1cc(OCC(=O)N(C)C)n(-c2ccccc2F)n1 [Example 615] | < 100 nM |
| Cc1ccccc1[C@H](CC(=O)O)NC(=O)c1cc(OCC(=O)N2CCCC2)n(-c2ccccc2F)n1 [Example 616] | < 100 nM |
| COCCOc1cc(C(=O)N[C@@H](CC(=O)O)c2ccccc2C)nn1-c1ccccc1F [Example 617] | < 100 nM |
| Cc1ccccc1[C@H](CC(=O)O)NC(=O)c1cc(OC(=O)N2CCCCC2)n(-c2ccccc2F)n1 [Example 619] | < 100 nM |
| Cc1ccccc1[C@H](CC(=O)O)NC(=O)c1cc(OC(=O)N(C)c2ccccc2)n(-c2ccccc2F)n1 [Example 620] | < 100 nM |
| CCOc1cc(C(=O)N[C@@H](CC(=O)O)c2ccccc2C)nn1-c1ccccc1 [Example 621] | < 100 nM |
| Cc1ccccc1[C@H](CC(=O)O)NC(=O)c1cc(OCC2CC2)n(-c2ccccc2)n1 [Example 622] | < 100 nM |
| Cc1ccccc1[C@H](CC(=O)O)NC(=O)c1cc(OCc2ccccc2C(F)(F)F)n(-c2ccccc2F)n1 [Example 623] | 100 to 1000 nM |
| Cc1ccccc1[C@H](CC(=O)O)NC(=O)c1cc(OCc2cccc(C(F)(F)F)c2)n(-c2ccccc2F)n1 [Example 624] | 100 to 1000 nM |
| Cc1ccccc1[C@H](CC(=O)O)NC(=O)c1cc(OCCc2ccccc2)n(-c2ccccc2F)n1 [Example 625] | < 100 nM |
| Cc1ccccc1[C@H](CC(=O)O)NC(=O)c1cc(OC2CCCC2)n(-c2ccccc2F)n1 [Example 626] | < 100 nM |
| Cc1ccccc1[C@H](CC(=O)O)NC(=O)c1cc(OCC2CCOCC2)n(-c2ccccc2F)n1 [Example 627] | < 100 nM |
| Cc1ccccc1[C@H](CC(=O)O)NC(=O)c1cc(OCCc2c(C)noc2C)n(-c2ccccc2F)n1 [Example 628] | < 100 nM |
| Cc1ccccc1[C@H](CC(=O)O)NC(=O)c1cc(OCc2ccncc2)n(-c2ccccc2F)n1 [Example 629] | < 100 nM |

| SMILES | IC50 |
| --- | --- |
| Cc1ccccc1[C@H](CC(=O)O)NC(=O)c1cc(OC(C)C)n(-c2ccccc2F)n1 [Example 630] | < 100 nM |
| Cc1ccccc1[C@H](CC(=O)O)NC(=O)c1cc(OC2CCCCC2)n(-c2ccccc2F)n1 [Example 631] | < 100 nM |
| Cc1ccccc1[C@H](CC(=O)O)NC(=O)c1cc(OCC(C)(C)C)n(-c2ccccc2F)n1 [Example 632] | < 100 nM |
| Cc1ccccc1[C@H](CC(=O)O)NC(=O)c1cc(OCC2CC2)n(-c2c(F)cccc2F)n1 [Example 634] | < 100 nM |
| Cc1ccccc1[C@H](CC(=O)O)NC(=O)c1cc(OCc2ccccc2C#N)n(-c2ccccc2F)n1 [Example 635, (S)-3-{[5-(2-Cyano-benzyloxy)-1-(2-fluoro-phenyl)-1H-pyrazole-3-carbonyl]-amino}-3-o-tolyl-propionic acid] | < 100 nM |
| Cc1ccc([C@H](CC(=O)O)NC(=O)c2cc(OCC(C)(O)c3ccccc3)n(-c3ccccc3F)n2)cc1 (some centres unmarked) [Example 636] | < 100 nM |
| CCOCCOCCOc1cc(C(=O)N[C@@H](CC(=O)O)c2ccccc2C)nn1-c1ccccc1F [Example 637] | < 100 nM |
| Cc1ccccc1[C@H](CC(=O)O)NC(=O)c1cc(OCC2CCCCC2)n(-c2ccccc2F)n1 [Example 638] | < 100 nM |
| Cc1ccccc1[C@H](CC(=O)O)NC(=O)c1cc(OCCN2CCCC2=O)n(-c2ccccc2F)n1 [Example 639] | < 100 nM |
| Cc1ccccc1[C@H](CC(=O)O)NC(=O)c1cc(OCc2ccccn2)n(-c2ccccc2F)n1 [Example 640] | < 100 nM |
| Cc1ccccc1[C@H](CC(=O)O)NC(=O)c1cc(OCCCF)n(-c2ccccc2F)n1 [Example 641] | < 100 nM |
| Cc1ccccc1[C@H](CC(=O)O)NC(=O)c1cc(OCC2CCCO2)n(-c2ccccc2F)n1 (some centres unmarked) [Example 642] | < 100 nM |
| Cc1cc(COc2cc(C(=O)N[C@@H](CC(=O)O)c3ccccc3C)nn2-c2ccccc2F)on1 [Example 643] | < 100 nM |
| Cc1ccccc1[C@H](CC(=O)O)NC(=O)c1cc(OCc2c(F)cccc2F)n(-c2ccccc2F)n1 [Example 644] | < 100 nM |
| Cc1ccccc1[C@H](CC(=O)O)NC(=O)c1cc(OCC2CC2(F)F)n(-c2ccccc2F)n1 (some centres unmarked) [Example 645] | < 100 nM |
| Cc1nc(COc2cc(C(=O)N[C@@H](CC(=O)O)c3ccccc3C)nn2-c2ccccc2F)cs1 [Example 646] | < 100 nM |
| Cc1ccccc1[C@H](CC(=O)O)NC(=O)c1cc(OCc2ccon2)n(-c2ccccc2F)n1 [Example 647] | < 100 nM |
| Cc1ccccc1[C@H](CC(=O)O)NC(=O)c1cc(OC2CCC2)n(-c2ccccc2F)n1 [Example 648] | < 100 nM |
| Cc1ccccc1[C@H](CC(=O)O)NC(=O)c1cc(OCC2CCC2)n(-c2ccccc2F)n1 [Example 649] | < 100 nM |
| Cc1ccccc1[C@H](CC(=O)O)NC(=O)c1cc(OCC2CCOC2)n(-c2ccccc2F)n1 (some centres unmarked) [Example 650] | < 100 nM |
| Cc1ccccc1[C@H](CC(=O)O)NC(=O)c1cc(OCc2ccccc2)n(-c2ccccc2F)n1 [Example 651] | < 100 nM |
| Cc1ccccc1[C@H](CC(=O)O)NC(=O)c1cc(OC[C@H]2CCC(=O)N2)n(-c2ccccc2F)n1 [Example 652] | < 100 nM |

| SMILES | IC50 |
| --- | --- |
| Cc1ccccc1[C@H](CC(=O)O)NC(=O)c1cc(OCC2CCCCO2)n(-c2ccccc2F)n1 (some centres unmarked) [Example 653] | < 100 nM |
| Cc1ccccc1[C@H](CC(=O)O)NC(=O)c1cc(OC[C@@H]2CCC(=O)N2)n(-c2ccccc2F)n1 [Example 654] | < 100 nM |
| COc1cccc(COc2cc(C(=O)N[C@@H](CC(=O)O)c3ccccc3C)nn2-c2ccccc2F)c1 [Example 655] | < 100 nM |
| Cc1cc(COc2cc(C(=O)N[C@@H](CC(=O)O)c3ccccc3C)nn2-c2ccccc2F)no1 [Example 657] | < 100 nM |
| Cc1ccccc1[C@H](CC(=O)O)NC(=O)c1cc(OCc2ccno2)n(-c2ccccc2F)n1 [Example 658] | < 100 nM |
| Cc1ccccc1[C@H](CC(=O)O)NC(=O)c1cc(OCCC(C)(C)C)n(-c2ccccc2F)n1 [Example 659] | < 100 nM |
| CCCCCCOc1cc(C(=O)N[C@@H](CC(=O)O)c2ccccc2C)nn1-c1ccccc1F [Example 660] | < 100 nM |
| CCOc1cc(C(=O)N[C@@H](CC(=O)O)c2ccccc2C)nn1-c1ccccc1F [Example 662] | < 100 nM |
| Cc1ccccc1[C@H](CC(=O)O)NC(=O)c1cc(OCC2(C)COC2)n(-c2ccccc2F)n1 [Example 663] | < 100 nM |
| COc1cc(C(=O)NC(CC(=O)O)c2cccc(F)c2C)nn1-c1ccccc1F (centres unmarked) [Example 664] | < 100 nM |
| COc1cc(C(=O)N[C@@H](CC(=O)O)c2ccccc2)nn1-c1ccccc1F [Example 665] | < 100 nM |
| COc1cc(C(=O)NC(CC(=O)O)c2ccc(C)cc2C)nn1-c1ccccc1F (centres unmarked) [Example 666] | < 100 nM |
| COc1ccccc1[C@H](CC(=O)O)NC(=O)c1cc(OC)n(-c2ccccc2F)n1 [Example 667] | 100 to 1000 nM |
| COc1cc(C(=O)N[C@@H](CC(=O)O)c2ccc(C#N)cc2)nn1-c1ccccc1F [Example 668] | 100 to 1000 nM |
| COc1cccc([C@H](CC(=O)O)NC(=O)c2cc(OC)n(-c3ccccc3F)n2)c1 [Example 669] | 100 to 1000 nM |
| COc1cc(C(=O)N[C@@H](CC(=O)O)c2cccc(C)c2)nn1-c1ccccc1F [Example 670] | < 100 nM |
| COc1cc(C(=O)N[C@@H](CC(=O)O)c2ccc(Cl)cc2)nn1-c1ccccc1F [Example 671] | < 100 nM |
| COc1ccc(C(CC(=O)O)NC(=O)c2cc(OC)n(-c3ccccc3F)n2)c(C)c1 (centres unmarked) [Example 672, 3-{[1-(2-Fluoro-phenyl)-5-methoxy-1H-pyrazole-3-carbonyl]-amino}-3-(4-methoxy-2-methyl-phenyl)-propionic acid] | < 100 nM |
| COc1cc(C(=O)N[C@@H](CC(=O)O)c2ccc(Cl)cc2Cl)nn1-c1ccccc1F [Example 673] | < 100 nM |
| COc1cc(C(=O)N[C@@H](CC(=O)O)c2ccc(C(F)(F)F)cc2)nn1-c1ccccc1F [Example 674] | < 100 nM |
| COc1cc(C(=O)N[C@@H](CC(=O)O)c2ccc(C)cc2)nn1-c1ccccc1F [Example 675] | < 100 nM |
